This note sets out measurements from ChEMBL document CHEMBL5316344, “Homologation of the Alkyl Side Chain of Antimitotic Phenyl 4-(2-Oxo-3-alkylimidazolidin-1-yl)benzenesulfonate Prodrugs Selectively Targeting CYP1A1-Expressing Breast Cancers Improves Their Stability in Rodent Liver Microsomes” (J Med Chem, 2023).

The IC50 is the concentration that gives 50% inhibition.

Series [1] relates to MCF7. Description: Induction of cell cycle arrest in human MCF7 cells expressing CYP1A1 assessed as accumulation of cells at G0/G1 phase at 15 nM incubated for 48 hrs by DAPI staining based flow cytometric analysis (reference value: 74+/-2 %). In kind it is functional.
Series [2] relates to HT-1080. The series can be described thus: Antiproliferative activity against human HT-1080 cells assessed as cell growth inhibition incubated for 48 hrs by sulforhodamine B assay. In kind it is functional, cell-based. Particulars: HT-1080, 48 h.
For series [3], the system named is HT-1080. The series can be described thus: Antiproliferative activity against human HT-1080 cells expressing CYP1A1 assessed as cell growth inhibition incubated for 48 hrs by sulforhodamine B assay. The series is classed as functional, cell-based. Particulars: HT-1080, 48 h. (Sulforhodamine B stains cellular protein and so reports cell mass.)
The subject of series [4] is MCF7. The series can be described thus: Induction of cell cycle arrest in human MCF7 cells expressing CYP1A1 assessed as accumulation of cells at S phase at 15 nM incubated for 48 hrs by DAPI staining based flow cytometric analysis (reference value: 11+/-1 %). In kind it is functional. Background: A flow cytometer gives signals particle by particle.
The test system of series [5] is M21. Description: Antiproliferative activity against human M21 cells assessed as cell growth inhibition incubated for 48 hrs by sulforhodamine B assay. In kind it is functional, cell-based. The conditions noted are these: M21, 48 h.
Series [6] relates to MCF7. The series can be described thus: Induction of cell cycle arrest in human MCF7 cells expressing CYP1A1 assessed as accumulation of cells at G2/M phase at 15 nM incubated for 48 hrs by DAPI staining based flow cytometric analysis (reference value: 16+/-2 %). In kind it is functional.
Series [7] can be described thus: Selectivity ratio, ratio of IC50 for antiproliferative activity against human HT-1080 cells to IC50 for antiproliferative activity against human HT-1080 cells expressing CYP1A1. In kind it is functional.
Series [8] can be described thus: Selectivity ratio, ratio of IC50 for antiproliferative activity against human HT-1080 cells transfected with empty vector to IC50 for antiproliferative activity against human HT-1080 cells expressing CYP1A1. The series is classed as functional.
Series [9] concerns HT-29. Description: Antiproliferative activity against human HT-29 cells assessed as cell growth inhibition incubated for 48 hrs by sulforhodamine B assay. The series is classed as functional, cell-based. Particulars: HT-29, 48 h.
Series [10] in a line: Selectivity ratio, ratio of IC50 for antiproliferative activity against human HT-29 cells to IC50 for antiproliferative activity against human MCF7 cells expressing CYP1A1. In kind it is functional.
Series [11] is described as follows: Selectivity ratio, ratio of IC50 for antiproliferative activity against human M21 cells to IC50 for antiproliferative activity against human MCF7 cells expressing CYP1A1. The series is classed as functional.
Series [12] relates to HT-1080. The series can be described thus: Antiproliferative activity against human HT-1080 cells transfected with empty vector assessed as cell growth inhibition incubated for 48 hrs by sulforhodamine B assay. The series is classed as functional, cell-based. The conditions noted are these: HT-1080, 48 h.
Series [13] concerns MCF7. Description: Antiproliferative activity against human MCF7 cells expressing CYP1A1 assessed as cell growth inhibition incubated for 48 hrs by sulforhodamine B assay. In kind it is functional, cell-based. Particulars: MCF7, 48 h.
For series [14], the system named is HT-1080. The series can be described thus: Antitumor activity against human HT-1080 cells transfected with empty vector xenografted in chick embryo assessed as reduction in tumor wet weight at 1 ug, iv incubated for 17 days by CAM assay. The arrangement: scale not given: the % may be the effect or the level left. The conditions noted are these: dose 1 µg, time 17 day. In kind it is functional. A general note: In xenograft studies the graft and the host belong to different species.

Series [15] in a line: Selectivity ratio, ratio of IC50 for antiproliferative activity against ER/PR/HER2-negative human MDA-MB-231 cells to IC50 for antiproliferative activity against ER/PR/HER2-negative human MDA-MB-468 cells. The series is classed as functional.
For series [16], the system named is MCF7. Description: Induction of cell cycle arrest in human MCF7 cells expressing CYP1A1 assessed as accumulation of cells at G2/M phase at 25 nM incubated for 48 hrs by DAPI staining based flow cytometric analysis (reference value: 16+/-2 %). In kind it is functional.
Series [17] is described as follows: Selectivity ratio, ratio of IC50 for antiproliferative activity against ER/PR/HER2-negative human MDA-MB-231 cells to IC50 for antiproliferative activity against ER/PR-negative HER2-positive human SK-BR-3 cells. The series is classed as functional.
In series [18] the test system is MCF7. The series can be described thus: Induction of cell cycle arrest in human MCF7 cells expressing CYP1A1 assessed as accumulation of cells at G0/G1 phase at 25 nM incubated for 48 hrs by DAPI staining based flow cytometric analysis (reference value: 74+/-2 %). The series is classed as functional.
For series [19], the system named is T47D. The series can be described thus: Antiproliferative activity against ER/PR-positive HER2-negative human T47D cells assessed as cell growth inhibition incubated for 72 hrs by sulforhodamine B assay. The series is classed as functional, cell-based.
Series [20] can be described thus: Toxicity in chick embryo xenografted with human […] cells assessed as mortality at 1 ug, iv incubated for 17 days. The series is classed as organism-based, Gallus gallus. Particulars: chicken, in vivo, 408 h, dose 1 µg, time 17 day.
For series [21], the system named is HT-1080. The series can be described thus: Antitumor activity against human HT-1080 cells xenografted in chick embryo assessed as reduction in tumor wet weight at 1 ug, iv incubated for 17 days by CAM assay. The series is classed as functional. The arrangement: scale not given: the % may be the effect or the level left. Particulars: dose 1 µg, time 17 day.
For series [22], the target named is Tubulin (Homo sapiens) (UniProt P68371+Q9H4B7+P0DPH7+P68366+Q13509+Q71U36+P04350+Q3ZCM7+P07437+P68363+Q9BQE3+Q6PEY2+Q13885+Q9BVA1+Q9BUF5). The series can be described thus: Disruption of microtubules in human MCF7 cells expressing CYP1A1 assessed as cytoskeleton disruption at 15 nM measured after 48 hrs by DAPI staining based fluorescence microscopic analysis. In kind it is cell-based.

Series [23] concerns MDA-MB-468. Description: Antiproliferative activity against ER/PR/HER2-negative human MDA-MB-468 cells assessed as cell growth inhibition incubated for 72 hrs by sulforhodamine B assay. The series is classed as functional, cell-based. The conditions noted are these: MDA-MB-468, 72 h.
Series [24] is described as follows: Toxicity in chick embryo xenografted with human […] cells transfected with empty vector assessed as mortality at 1 ug, iv incubated for 17 days. In kind it is organism-based, Gallus gallus. Particulars: chicken, in vivo, 408 h, dose 1 µg, time 17 day.
Series [25] in a line: Selectivity ratio, ratio of IC50 for antiproliferative activity against ER/PR/HER2-negative human MDA-MB-231 cells to IC50 for antiproliferative activity against ER/PR-positive HER2-negative human T47D cells. In kind it is functional.
For series [26], the system named is MDA-MB-231. Description: Antiproliferative activity against ER/PR/HER2-negative human MDA-MB-231 cells assessed as cell growth inhibition incubated for 72 hrs by sulforhodamine B assay. The series is classed as functional, cell-based. The conditions noted are these: MDA-MB-231, 72 h.
Series [27] is described as follows: Selectivity ratio, ratio of IC50 for antiproliferative activity against ER/PR/HER2-negative human MDA-MB-231 cells to IC50 for antiproliferative activity against […] human MCF7 cells. In kind it is functional.
Series [28] deals with MCF7. Description: Induction of cell cycle arrest in human MCF7 cells expressing CYP1A1 assessed as accumulation of cells at S phase at 25 nM incubated for 48 hrs by DAPI staining based flow cytometric analysis (reference value: 11+/-1 %). The series is classed as functional.
Series [29] relates to SK-BR-3. Description: Antiproliferative activity against ER/PR-negative HER2-positive human SK-BR-3 cells assessed as cell growth inhibition incubated for 72 hrs by sulforhodamine B assay. The series is classed as functional, cell-based. The conditions noted are these: SK-BR-3, 72 h.
Series [30] has as its system HT-1080. The series can be described thus: Antitumor activity against human HT-1080 cells expressing CYP1A1 xenografted in chick embryo assessed as reduction in tumor wet weight at 1 ug, iv incubated for 17 days by CAM assay. Particulars: dose 1 µg, time 17 day. In kind it is functional. The arrangement: scale not given: the % may be the effect or the level left.
Series [31] can be described thus: Toxicity in chick embryo xenografted with human […] cells expressing CYP1A1 assessed as mortality at 1 ug, iv incubated for 17 days. The series is classed as organism-based, Gallus gallus. The conditions noted are these: chicken, in vivo, 408 h, dose 1 µg, time 17 day.
Series [32] concerns MCF7. Description: Antiproliferative activity against […] human MCF7 cells assessed as cell growth inhibition incubated for 72 hrs by sulforhodamine B assay. In kind it is functional, cell-based. The conditions noted are these: MCF7, 72 h.

Activity calls are given as the source filed them. The calls are words filed in the database; no cut-off is given here.

For `COc1ccc(/C=C\c2cc(OC)c(OC)c(OC)c2)cc1O` [COMBRETASTATIN A4], the results for the Activity in [1], in series [4] and in [6] were 20.1%, 8% and 72%, respectively. Moreover, the IC50 in [2] turned out to be 6 nM; in series [3] it was 2.1 nM; in series [5], 0.4 nM; in series [9] it was 6 nM; in [12], 1.3 nM; in [13] it was 9 nM. Also, the “Ratio IC50” value in [7] is 2.9; in [8], 0.62; in series [10], 0.66; in [11], 0.044.
Regarding `COc1cc(OS(=O)(=O)c2ccc(N3CCNC3=O)cc2)cc(OC)c1OC`, the Activity in series [14] is given as 79%; in [16], 63%; in [18] it was 28%; in series [20], “Non-Toxic”; in [21], 49%; in [24], “Non-Toxic”. Also, the Activity in series [28] is on record as 9%; in series [30] it was 68%; in series [31], “Non-Toxic”. Besides, the “Ratio IC50” value in series [15] stood at 1.3; in [17], 2.3; in [25], 0.53; in series [10] it was 1.6; in series [27] it was 2; in [11] it was 1.6. The IC50 in [19] stood at 13 nM; in series [23], 5.3 nM; in series [5], 40 nM; in series [9], 40 nM; in series [26], 6.9 nM; in [29], 3 nM. Moreover, the IC50 in series [13] is 25 nM; in [32] it was 3.4 nM. The result in series [22] was Active.
